Like-named read-outs stand apart in the source and are kept apart here.
Assays:
Assay in all cases: biochemical
Format in all cases: biochemical
382 unique human kinases [1] = biological target: T1, 382 unique human kinases (Homo sapiens, UniProt P35968); conditions: kinase KDR/VEGFR2, compound 10 uM; for remaining activity at 10 µM: read-out: % Enzyme Activity (relative to DMSO controls)
T1 construct: purchased Reaction Biology (HotSpot contract assay)

382 unique human kinases [2] = biological target: T2, 382 unique human kinases (Homo sapiens, UniProt P36897); conditions: kinase ALK5/TGFBR1, compound 10 uM; for remaining activity at 10 µM: read-out: % Enzyme Activity (relative to DMSO controls)
T2 construct: purchased Reaction Biology (HotSpot contract assay)
T2 sequence (P36897 34-503): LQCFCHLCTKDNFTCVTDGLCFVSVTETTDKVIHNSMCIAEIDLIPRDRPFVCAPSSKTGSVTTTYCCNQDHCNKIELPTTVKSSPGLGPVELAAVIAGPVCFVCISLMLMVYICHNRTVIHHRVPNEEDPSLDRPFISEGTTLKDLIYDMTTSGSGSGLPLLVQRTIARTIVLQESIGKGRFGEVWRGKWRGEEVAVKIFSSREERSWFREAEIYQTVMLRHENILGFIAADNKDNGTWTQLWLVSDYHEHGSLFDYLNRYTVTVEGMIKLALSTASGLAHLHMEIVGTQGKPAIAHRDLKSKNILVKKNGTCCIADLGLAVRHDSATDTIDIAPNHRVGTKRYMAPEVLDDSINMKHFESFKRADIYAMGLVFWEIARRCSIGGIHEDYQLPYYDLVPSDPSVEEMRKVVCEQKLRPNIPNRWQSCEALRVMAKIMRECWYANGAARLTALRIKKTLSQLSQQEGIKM

382 unique human kinases [3] = biological target: T3, 382 unique human kinases (Homo sapiens, UniProt P51817); conditions: PRKX, compound at 10 uM, duplicate values; for remaining activity at 10 µM: read-out: % Enzyme Activity (relative to DMSO controls)
T3 construct: purchased Reaction Biology (HotSpot contract assay)
T3 sequence (P51817 1-358): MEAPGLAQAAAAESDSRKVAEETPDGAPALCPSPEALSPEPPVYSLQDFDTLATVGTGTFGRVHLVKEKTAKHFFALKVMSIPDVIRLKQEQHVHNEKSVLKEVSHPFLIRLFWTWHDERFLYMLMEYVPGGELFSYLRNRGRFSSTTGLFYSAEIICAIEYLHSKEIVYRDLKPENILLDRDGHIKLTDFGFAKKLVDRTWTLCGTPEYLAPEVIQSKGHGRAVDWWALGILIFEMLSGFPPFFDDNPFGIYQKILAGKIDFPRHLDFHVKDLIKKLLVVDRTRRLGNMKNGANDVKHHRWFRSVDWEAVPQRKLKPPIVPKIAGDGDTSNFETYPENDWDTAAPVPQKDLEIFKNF

382 unique human kinases [4] = biological target: T4, 382 unique human kinases (Homo sapiens, UniProt Q00526); conditions: kinase CDK3/cyclin E, compound 10 uM; for remaining activity at 10 µM: read-out: % Enzyme Activity (relative to DMSO controls)
T4 construct: purchased Reaction Biology (HotSpot contract assay)
T4 sequence (Q00526 whole entry): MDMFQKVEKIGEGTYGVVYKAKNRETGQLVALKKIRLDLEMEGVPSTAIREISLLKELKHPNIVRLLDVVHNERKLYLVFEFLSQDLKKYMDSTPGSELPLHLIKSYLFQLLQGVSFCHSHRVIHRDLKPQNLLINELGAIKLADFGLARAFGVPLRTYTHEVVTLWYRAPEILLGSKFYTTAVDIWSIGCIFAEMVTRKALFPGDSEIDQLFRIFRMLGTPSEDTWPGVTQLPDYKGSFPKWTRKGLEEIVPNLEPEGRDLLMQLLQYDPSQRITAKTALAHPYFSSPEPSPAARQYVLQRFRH

382 unique human kinases [5] = biological target: T5, 382 unique human kinases (Homo sapiens, UniProt Q02763); conditions: for remaining activity at 10 µM: read-out: % Enzyme Activity (relative to DMSO controls)
T5 construct: purchased Reaction Biology (HotSpot contract assay)

382 unique human kinases [6] = biological target: T6, 382 unique human kinases (Homo sapiens, UniProt O15530); conditions: PDK1/PDPK1, 10 uM; for remaining activity at 10 µM: read-out: % Enzyme Activity (relative to DMSO controls)
T6 construct: purchased Reaction Biology (HotSpot contract assay)
T6 sequence (O15530 1-556): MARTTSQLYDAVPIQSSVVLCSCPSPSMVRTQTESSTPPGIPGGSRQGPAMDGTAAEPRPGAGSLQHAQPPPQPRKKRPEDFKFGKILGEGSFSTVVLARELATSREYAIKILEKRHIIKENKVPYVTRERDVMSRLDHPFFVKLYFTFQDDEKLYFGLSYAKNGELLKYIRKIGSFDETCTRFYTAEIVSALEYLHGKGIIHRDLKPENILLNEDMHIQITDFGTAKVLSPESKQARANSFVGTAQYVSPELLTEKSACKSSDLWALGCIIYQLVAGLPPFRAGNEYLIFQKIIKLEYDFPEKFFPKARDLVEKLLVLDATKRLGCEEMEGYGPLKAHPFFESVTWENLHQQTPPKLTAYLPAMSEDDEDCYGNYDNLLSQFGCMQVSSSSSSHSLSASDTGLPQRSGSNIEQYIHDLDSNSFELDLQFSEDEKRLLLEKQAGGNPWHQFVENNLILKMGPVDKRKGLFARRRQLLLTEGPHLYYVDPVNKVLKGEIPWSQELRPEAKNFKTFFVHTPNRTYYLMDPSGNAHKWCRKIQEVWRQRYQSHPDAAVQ

382 unique human kinases [7] = biological target: T7, 382 unique human kinases (Homo sapiens, UniProt P27361); conditions: ERK1, 10 uM; for remaining activity at 10 µM: read-out: % Enzyme Activity (relative to DMSO controls)
T7 construct: purchased Reaction Biology (HotSpot contract assay)
T7 sequence (P27361 whole entry): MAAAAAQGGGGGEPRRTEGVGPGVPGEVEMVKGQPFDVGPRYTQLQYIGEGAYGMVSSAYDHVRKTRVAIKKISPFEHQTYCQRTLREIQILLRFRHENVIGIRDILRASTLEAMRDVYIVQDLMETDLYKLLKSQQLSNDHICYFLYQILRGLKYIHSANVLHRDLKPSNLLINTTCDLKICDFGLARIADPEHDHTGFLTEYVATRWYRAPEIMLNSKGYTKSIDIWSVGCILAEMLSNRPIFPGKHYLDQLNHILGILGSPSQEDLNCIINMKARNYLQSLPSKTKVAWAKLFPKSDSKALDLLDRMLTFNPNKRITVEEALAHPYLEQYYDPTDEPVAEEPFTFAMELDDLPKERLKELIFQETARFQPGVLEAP

382 unique human kinases [8] = biological target: T8, 382 unique human kinases (Homo sapiens, UniProt P34947); conditions: GRK5, 10 uM; for remaining activity at 10 µM: read-out: % Enzyme Activity (relative to DMSO controls)
T8 construct: purchased Reaction Biology (HotSpot contract assay)
T8 sequence (P34947 whole entry): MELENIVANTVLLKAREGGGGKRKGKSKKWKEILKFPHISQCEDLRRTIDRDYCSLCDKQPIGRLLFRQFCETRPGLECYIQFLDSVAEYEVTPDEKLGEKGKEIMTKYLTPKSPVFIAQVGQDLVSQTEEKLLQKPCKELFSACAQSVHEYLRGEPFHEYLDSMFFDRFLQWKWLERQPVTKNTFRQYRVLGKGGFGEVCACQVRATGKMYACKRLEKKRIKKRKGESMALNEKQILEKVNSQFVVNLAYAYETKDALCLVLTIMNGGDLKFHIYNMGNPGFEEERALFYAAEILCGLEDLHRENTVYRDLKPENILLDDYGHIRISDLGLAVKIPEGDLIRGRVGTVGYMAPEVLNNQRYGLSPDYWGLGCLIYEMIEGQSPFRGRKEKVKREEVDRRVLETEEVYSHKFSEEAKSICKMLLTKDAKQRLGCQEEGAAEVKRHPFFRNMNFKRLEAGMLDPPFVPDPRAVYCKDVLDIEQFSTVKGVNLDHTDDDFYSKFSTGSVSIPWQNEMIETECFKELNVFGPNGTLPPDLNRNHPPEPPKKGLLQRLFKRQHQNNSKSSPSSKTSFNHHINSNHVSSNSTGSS

382 unique human kinases [9] = biological target: T9, 382 unique human kinases (Homo sapiens, UniProt Q8N752); conditions: CK1a1L, 10 uM; for remaining activity at 10 µM: read-out: % Enzyme Activity (relative to DMSO controls)
T9 construct: purchased Reaction Biology (HotSpot contract assay)
T9 sequence (Q8N752 1-337): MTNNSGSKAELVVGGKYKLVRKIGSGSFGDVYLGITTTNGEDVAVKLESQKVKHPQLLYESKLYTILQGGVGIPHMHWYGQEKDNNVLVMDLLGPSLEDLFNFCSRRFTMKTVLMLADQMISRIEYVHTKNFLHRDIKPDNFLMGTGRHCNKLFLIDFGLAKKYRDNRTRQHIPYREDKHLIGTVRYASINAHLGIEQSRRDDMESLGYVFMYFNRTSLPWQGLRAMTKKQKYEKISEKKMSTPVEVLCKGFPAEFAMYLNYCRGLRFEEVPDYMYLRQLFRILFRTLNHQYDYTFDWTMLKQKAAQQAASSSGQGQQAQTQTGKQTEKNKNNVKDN

382 unique human kinases [10] = biological target: T10, 382 unique human kinases (Homo sapiens, UniProt Q9UIK4); conditions: DAPK2, 10 uM; for remaining activity at 10 µM: read-out: % Enzyme Activity (relative to DMSO controls)
T10 construct: purchased Reaction Biology (HotSpot contract assay)
T10 sequence (Q9UIK4 whole entry): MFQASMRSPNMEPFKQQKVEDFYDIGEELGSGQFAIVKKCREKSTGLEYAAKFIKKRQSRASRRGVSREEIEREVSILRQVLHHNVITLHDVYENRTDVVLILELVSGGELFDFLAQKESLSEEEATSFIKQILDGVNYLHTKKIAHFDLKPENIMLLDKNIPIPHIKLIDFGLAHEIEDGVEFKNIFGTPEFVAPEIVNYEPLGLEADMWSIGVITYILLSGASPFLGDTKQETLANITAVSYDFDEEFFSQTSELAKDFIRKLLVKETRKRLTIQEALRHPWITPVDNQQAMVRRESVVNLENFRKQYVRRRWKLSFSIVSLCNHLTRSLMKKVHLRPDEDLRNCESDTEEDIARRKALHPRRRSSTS

[11] = TIE2/TEK, compound at 10 uM, duplicate values

T1 sequence (P35968 20-1356): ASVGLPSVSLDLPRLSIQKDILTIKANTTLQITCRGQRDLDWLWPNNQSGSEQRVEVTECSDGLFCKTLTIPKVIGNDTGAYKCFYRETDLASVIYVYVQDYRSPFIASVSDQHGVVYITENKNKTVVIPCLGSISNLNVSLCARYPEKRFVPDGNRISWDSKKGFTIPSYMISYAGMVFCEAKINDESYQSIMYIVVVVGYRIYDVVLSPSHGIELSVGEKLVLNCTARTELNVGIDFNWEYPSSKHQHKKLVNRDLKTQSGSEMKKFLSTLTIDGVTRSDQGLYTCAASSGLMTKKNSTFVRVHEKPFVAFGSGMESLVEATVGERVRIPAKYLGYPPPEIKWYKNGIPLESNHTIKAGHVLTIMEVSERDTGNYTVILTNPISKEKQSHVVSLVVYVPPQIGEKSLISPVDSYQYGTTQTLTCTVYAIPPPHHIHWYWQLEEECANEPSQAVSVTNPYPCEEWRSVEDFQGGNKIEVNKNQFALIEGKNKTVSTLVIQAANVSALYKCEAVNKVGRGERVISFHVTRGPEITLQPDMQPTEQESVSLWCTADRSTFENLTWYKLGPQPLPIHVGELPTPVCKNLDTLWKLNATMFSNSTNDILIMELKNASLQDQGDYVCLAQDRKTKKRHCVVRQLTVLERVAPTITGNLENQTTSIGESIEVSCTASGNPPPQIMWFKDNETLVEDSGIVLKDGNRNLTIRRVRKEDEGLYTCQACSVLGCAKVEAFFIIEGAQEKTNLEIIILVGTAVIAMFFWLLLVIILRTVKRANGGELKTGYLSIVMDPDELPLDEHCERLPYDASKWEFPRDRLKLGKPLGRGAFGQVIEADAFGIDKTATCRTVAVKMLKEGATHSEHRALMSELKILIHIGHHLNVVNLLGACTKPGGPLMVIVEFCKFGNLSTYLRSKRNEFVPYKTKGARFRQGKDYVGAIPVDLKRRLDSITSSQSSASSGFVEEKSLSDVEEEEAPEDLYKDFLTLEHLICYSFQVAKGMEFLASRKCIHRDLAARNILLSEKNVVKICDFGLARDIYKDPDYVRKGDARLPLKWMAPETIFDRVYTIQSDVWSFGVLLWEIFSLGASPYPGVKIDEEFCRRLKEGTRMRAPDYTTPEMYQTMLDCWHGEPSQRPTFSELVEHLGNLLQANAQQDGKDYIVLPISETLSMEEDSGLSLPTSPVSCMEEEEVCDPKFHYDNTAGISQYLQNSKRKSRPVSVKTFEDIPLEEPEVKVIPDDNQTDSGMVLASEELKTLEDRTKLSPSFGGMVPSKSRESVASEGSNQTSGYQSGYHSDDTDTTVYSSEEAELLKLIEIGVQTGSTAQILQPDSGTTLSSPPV

Row | Compound | remaining activity at 10 µM (382 unique human kinases [1]) | remaining activity at 10 µM (382 unique human kinases [2]) | remaining activity at 10 µM (382 unique human kinases [3]) | remaining activity at 10 µM (382 unique human kinases [4]) | remaining activity at 10 µM (382 unique human kinases [5]; TIE2 (A1124V), 10 uM) | remaining activity at 10 µM (382 unique human kinases [5]; [11]) | remaining activity at 10 µM (382 unique human kinases [6]) | remaining activity at 10 µM (382 unique human kinases [7]) | remaining activity at 10 µM (382 unique human kinases [8]) | remaining activity at 10 µM (382 unique human kinases [9]) | remaining activity at 10 µM (382 unique human kinases [10]) | further results
1 | CC(C)c1cc(-c2n[nH]c(=O)n2-c2ccc3c(ccn3C)c2)c(O)cc1O [Ganetespib (STA9090)] | 88.7% | 90.1% | 108% | 82.2% | 71% | 101% |  |  |  |  |  | 
2 | CC(C)c1cc(-c2n[nH]c(=O)n2-c2ccc3c(ccn3C)c2)c(O)cc1O [Ganetespib] |  |  |  |  |  |  | 99.4% | 101% | 96% | 98.3% | 96.6% | 
3 | CCNC(=O)c1noc(-c2cc(C(C)C)c(O)cc2O)c1-c1ccc(CN2CCOCC2)cc1 [Luminespib (AUY-922)] | 101% | 94.7% | 112% | 103% | 96.5% | 108% |  |  |  |  |  | % Enzyme Activity (relative to DMSO controls) (382 unique human kinases [1]): 99.89%; % Enzyme Activity (relative to DMSO controls) (382 unique human kinases [2]): 93.53%; % Enzyme Activity (relative to DMSO controls) (382 unique human kinases [3]): 112.11%; % Enzyme Activity (relative to DMSO controls) (382 unique human kinases [4]): 102.34%; % Enzyme Activity (relative to DMSO controls) (382 unique human kinases [5]; TIE2 (A1124V), 10 uM): 95.16%; % Enzyme Activity (relative to DMSO controls) (382 unique human kinases [5]; [11]): 106.94%
4 | CCNC(=O)c1noc(-c2cc(C(C)C)c(O)cc2O)c1-c1ccc(CN2CCOCC2)cc1 [Luminespib] |  |  |  |  |  |  | 102% | 96.1% | 102% | 100% | 95.4% | % Enzyme Activity (relative to DMSO controls) (382 unique human kinases [6]): 101.64%; % Enzyme Activity (relative to DMSO controls) (382 unique human kinases [7]): 95.87%; % Enzyme Activity (relative to DMSO controls) (382 unique human kinases [8]): 101.05%; % Enzyme Activity (relative to DMSO controls) (382 unique human kinases [9]): 99.86%; % Enzyme Activity (relative to DMSO controls) (382 unique human kinases [10]): 94.93%
